Key:
[1] = system: Human monocytic dendritic cells; assay: LDH release assay (cell cytotoxicity); format: cell-based; conditions: 16 nM, 80 nM, 400 nM and 2000 nM with AAV.SAN024 MOI 1e5 24 hrs, versus untreated/uninfected cells
Description: (§1) IRAK4 targeting drugs and AAV Treatments. Dendritic cells were plated in 96 well plates with 200,000 cells per well. Each treatment was performed in triplicates. Cells were treated with zimlovisertib IRAK4 inhibitor (Synonyms: PF-06650833) Cat. No.: HY-19836 (MedChemExpress) and PROTAC IRAK4 degrader-1 Cat. No.: HY-129966 (MedChemExpress) at 16 nm, 80 nm, 400 nm and 2000 nm for 18 hrs at 37° C., 5% CO2 in an incubator. After pre-treatment of 18 hrs with the drugs, AAV vectors at 1e5 MOI were used. The cells were incubated at 37° C., 5% CO2 in an incubator for 24 hours. After 24 hours, plates were centrifuged and media supernatant was collected. The clarified media was analyzed by Meso Scale Discovery MSD (world wide web mesoscale.com/products/v-plex-proinflammatory-panel-1-human-kit-k15049d/) performed by DC3 therapeutics https://www.dc3therapeutics.com/services. […]
LDH Release Assay. Cell cytotoxicity was measured by release of lactate dehydrogenase (LDH) in media supernatants. LDH was quantified using Promega kit (Catalog #G1780) as per manufacturer's protocol. […] Stop Solution was added, and the absorbance signal is measured at 490 nm in a plate reader. https://www.promega.com/products/cell-health-assays/cell-viability-and-cytotoxicity-assays/cytotox-96-non_radioactive-cytotoxicity-assay/?catNum=G1780#protocols […]

[2] = system: Human monocytic dendritic cells infected with AAV.SAN024; assay: Cytokine release (Meso Scale Discovery) from dendritic cells treated with IRAK4 modulators and infected with AAV; format: cell-based; conditions: for AAV-induced secretion of IL1b cytokine from dendritic cells: 80 nM, all doses
Description: Preparation of peripheral blood mononuclear cells. Blood from leukopaks (Stem cell technologies) from different donors was decanted into 50 mL tubes and Dulbecco's phosphate buffered saline (DPBS) was added at a 1:1 ratio. The blood plus DBPS mix was gently pipetted into a separate 50 mL tube containing 15 mL Ficoll (GE17-5442-02) to ensure no mixing of the blood and Ficoll phases. The mixture was centrifuged at 2000 RPM for 25 minutes at room temperature (9 acceleration and no braking). The buffy coat containing the peripheral blood mononuclear cells (PBMCs) was collected, transferred to a new tube, and centrifuged for five minutes at 400 RCF. PBMCs were washed three times with phosphate buffered saline (PBS) containing 1% fetal bovine serum (FBS) or fetal calf serum (FCS) and counted.
Isolation of monocytes. CD14+ monocytes were isolated from the PBMCs using CD14 MicroBeads following the manufacturer's protocol (Miltenyi Biotech, Germany, order no. 130-050-201, protocol available online world wide web miltenyibiotec.com/upload/assets/IM0001260.PDF). Briefly, PBMCs were incubated with 20 μL of CD14 MicroBeads per 10^7 total cells for 15 minutes at 2-8° C. PBMCs were applied onto a magnetic column (Miltenyi; world wide web miltenyibiotec.com/US-en/products/ls-columns.html#130-042-401) and unlabeled cells were allowed to pass through. After washing the column three times, the column was removed from the magnetic separator, (Miltneyi; world wide web miltenyibiotec.com/US-en/products/quadromacs-separator-and-starting-kits.html#130-091-051) placed on a collection tube, and magnetically labeled CD14+ monocytes were flushed out by pushing a plunger into the column.
Differentiation of monocytes. CD14+ monocytes were differentiated into dendritic cells using ImmunoCult-ACF Dendritic Cell Media, Differentiation Supplement, and Maturation Supplement (Stem Cell Technologies, catalog #10986, #10988, and #10989; world wide web cdn.stemcell.com/media/Files/pis/DX20521-PIS_1_2_0.pdf?_ga=2.81451927.1035383195.1642105700-1174975582.1603298321) following the manufacturer's protocol available online. Briefly, purified CD14+ monocytes were added to Dendritic Cell Media containing the Differentiation Supplement and incubated at 37° C. for three days. On day 3, media was replaced with fresh Dendritic Cell media containing Differentiation Supplement and cells were incubated for two additional days. On day 5, Maturation Supplement was added to the cells at a 1 to 100 dilution (e.g. 50 μL supplement per 5 mL culture). Differentiated dendritic cells were harvested on day 7.
rAAV production and titration. rAAV vectors (AAV.SAN024 and AAV.SAN029) were produced using a standard triple transfection method (Sena-Esteves and Gao, Cold Spring Harb Protoc; doi:10.1101/pdb.top095513, 2020). All serotypes tested encode the same GFP transgene. Viruses were purified by cesium chloride ultracentrifugation and titrated using both silver staining and quantitative polymerase chain reaction (qPCR).
as §1, with “After pre-treatment of 18 hrs with the drugs, AAV vectors at 1e5 MOI were used.” left out, “https://www.dc3therapeutics.com/services. The experiment outline of PBMC isolation, monocyte purification and dendritic cell differentiation is illustrated in FIG. 1.” for “https://www.dc3therapeutics.com/services.”

[3] = co-treated with 16 nM, 400 nM and 2000 nM and AAV.SAN024 MOI 1e5 at the same time, 24 hrs
[4] = co-treated with 16-2000 nM and AAV.SAN024 MOI 1e5, 24 hrs
[5] = pre-treated 18 hrs with 16 nM, 400 nM and 2000 nM, then AAV.SAN024 MOI 1e5 24 hrs, three donors
[6] = pre-treated 18 hrs with 16-2000 nM, then AAV.SAN024 MOI 1e5 24 hrs

Row | SMILES | Cellular toxicity (LDH release in media supernatants) [1] | AAV-induced secretion of IL1b cytokine from dendritic cells [2, 3] | AAV-induced IL6 release from dendritic cells [2, 4] | AAV-induced TNFα release from dendritic cells [2, 4] | AAV-induced secretion of IL1b cytokine from dendritic cells [2, 5] | AAV-induced IL6 release from dendritic cells [2, 6] | AAV-induced TNFα release from dendritic cells [2, 6]
1 | O=C1CCC(N2C(=O)c3cccc(NCc4cn(CCCNC(=O)c5ccc(-n6cc(NC(=O)c7coc(-c8ccnc(NCC9CC9)c8)n7)c(C(F)(F)F)n6)cc5)cn4)c3C2=O)C(=O)N1 (centres unmarked) [PROTAC IRAK4 degrader-1] | no cellular toxicity | blocked | Cytokine block was also observed | Cytokine block was also observed | blocked | Cytokine block was also observed | Cytokine block was also observed
2 | CC[C@@H]1[C@H](F)C(=O)N[C@@H]1COc1nccc2cc(C(N)=O)c(OC)cc12 [zimlovisertib, 1-[[(2S,3S,4S)-3-Ethyl-4-fluoro-5-oxo-2-pyrrolidinyl]methoxy]-7-methoxy-6-isoquinolinecarboxamide] | no cellular toxicity | blocked | Cytokine block was also observed | Cytokine block was also observed | blocked | Cytokine block was also observed | Cytokine block was also observed

— patent publication US20230405151A1, “USE OF IRAK4 MODULATORS FOR GENE THERAPY” (Genzyme Corporation, priority 2022, published 2023)
